These results are taken from article PMC10258794, “To Fold or Not to Fold: Diastereomeric Optimization of an α-Helical Antimicrobial Peptide” (Journal of Medicinal Chemistry, 2023).

The structures appear in SMILES notation. Values after ≈ are worked out from the molar mass of the structure shown. Like-named read-outs stand apart in the source and are kept apart here. Positions of bridges follow the written chain, without caps; N, C: chain ends. Non-standard residues stand in square brackets, D forms with d. Residues, ends and D or L forms follow the SMILES beside them. *: point of attachment. Heptanoyl(6-Me) = CC(C)CCCCC(=O)*; dDab = NCC[C@@H](N)C(=O)O; Dab = NCC[C@H](N)C(=O)O Where only a bound is given, the exact number is not on record here.

Test [1] can be described thus: EYPC vesicle leakage assay. The format is biochemical. The following applies: 10 μg/mL of compound; 10 mM TRIS, 107 mM NaCl, pH 7.4. The protocol:
5(6)-carboxyfluorescein (CF) was purchased from Sigma. EYPC, EYPG, and a Mini-Extruder were purchased from Avanti Polar Lipids. Egg PC or Egg PG thin lipid layers were prepared by evaporating a solution of 100 mg of EYPC or EYPG in 4 mL of MeOH/CHCl3 (1:1) on a rotary evaporator at room temperature and then dried in vacuo overnight. […] Extravesicular components were removed by gel filtration (Sephadex G-50) with 10 mM TRIS, 107 mM NaCl, pH 7.4 buffer. Final conditions: ∼2.5 mM PC or PG; inside: 50 mM CF, 10 mM TRIS, 10 mM NaCl, pH 7.4 buffer; outside: 10 mM TRIS, 107 mM NaCl, pH 7.4. […] The CF efflux was monitored at λem 517 nm (λex 492 nm) as a function of time after addition of the desired volume of peptide from 2 mg/mL stock in mQ water at t = 45 s, 10 and 50 μg/mL were monitored for both EYPC and EYPG. […] Fluorescence intensities were then normalized to the maximal emission intensity using I(t) = (It – I0)/(I∞ – I0) where I0 = It at peptide addition, I∞ = It at saturation of lysis.

Another test concerns K. pneumoniae NCTC418. Here is the method: (§1) Antimicrobial activity was determined for all peptides on E. coli W3110, P. aeruginosa PAO1, A. baumannii ATCC19606, K. pneumoniae NCTC418, and methicillin-resistant S. aureus COL and for selected peptides on P. aeruginosa PA14 and the polymyxin B-resistant derivatives PA14 4.13, PA14 4.18, and PA14 2P4 as well as the clinical isolates ZEM-1A and ZEM9A, K. pneumoniae OXA-48, Enterobacter cloacae, Stenotrophomonas maltophilia, B. cenocepacia, and Staphylococus epidermis. To determine the MIC, the broth microdilution method was used.[75] A single bacterial colony was grown in LB medium overnight at 37 °C and 180 rpm shaking. The compounds were prepared as stock solutions of 2 mg/mL in sterilized milliQ deionized water, added to the first well of 96-well sterile, polypropylene round-bottom microtiter plates (TPP, untreated, Corning Incorporated, Kennebunk, USA), and diluted serially by 1/2. […] The bacterial inoculum was prepared by measuring the absorbance of the overnight culture, which was diluted to concentration of the bacteria was quantified by measuring absorbance at 600 nm and diluted to an OD600 of 0.022 in MH medium pH 7.4 (Sigma-Aldrich, Buchs, Switzerland). The sample solutions (150 μL) were mixed with 4 μL of diluted bacterial suspension with a final inoculation of about 5 × 10^5 CFU. For each test, two columns of the plate were kept for sterility control (MH medium only) and growth control (MH medium with bacterial inoculum, no compound). […] The plates were incubated at 37 °C for 16–20 h under static conditions. 15 μL of 3-(4,5-dimethylthiazol-2-yl)-2,5-diphenyltetrazolium bromide (MTT)[76] (1 mg/mL in sterilized milliQ deionized water) was added to each well, and the plates were incubated at room temperature until MTT staining was completed. The MIC was defined as the lowest concentration of the dendrimer that inhibits the visible growth of the tested bacteria (yellow) with the unaided eye.

A further test deals with S. aureus COL MRSA. As to conditions: for MIC S. aureus COL MRSA: MH broth pH 7.4, 16–20 h, 37 °C; for MIC S. aureus COL: supplementary CSV, ranges of Table 1 given as one number. Here is the method:
as §1

A further test relates to A. baumannii ATCC19606. The protocol:
as §1

The next test relates to E. coli W3110. As to conditions: MH broth pH 7.4, 16–20 h, 37 °C. Here is the method: as §1
The next test relates to P. aeruginosa PAO1. Here is the method: as §1
In a further test the test system is PA14 4.18 (pmrB). Nature of the test: microbe, parasite or virus in culture. Here is the method: as §1
The subject of the next test is PA14 2P4 (pmrB). The experiment in a line: microbe, parasite or virus in culture. Here is the method: as §1
Another test relates to Burkolderia cenocepacia. Nature of the test: microbe, parasite or virus in culture. Here is the method: as §1
A further test relates to P. aeruginosa PA14. Nature of the test: microbe, parasite or virus in culture. The protocol: as §1
The next test concerns P. aeruginosa ZEM-1A. Nature of the test: microbe, parasite or virus in culture. Here is the method:
as §1

The subject of another test is PA14 4.13 (phoQ). The experiment in a line: microbe, parasite or virus in culture. Here is the method:
as §1

In another test the test system is Enterobacter cloacae. The experiment in a line: microbe, parasite or virus in culture. The protocol: as §1
Another test concerns P. aeruginosa ZEM9A. The experiment in a line: microbe, parasite or virus in culture. Format: cell-based, Pseudomonas aeruginosa. The protocol:
as §1

Test [2] deals with Stenotrophomonas maltophilia. Nature of the test: microbe, parasite or virus in culture. The format is cell-based. Here is the method:
as §1

In a further test the test system is K. pneumoniae Oxa-48. The experiment in a line: MIC broth microdilution, K. pneumoniae Oxa-48. The format is cell-based, Klebsiella pneumoniae. The protocol:
as §1
On the technique in general: Dilution methods test growth across graded concentrations, often in twofold steps.

A further test relates to Staphylococcus epidermis. The experiment in a line: MIC broth microdilution, Staphylococcus epidermis. The format is cell-based. As to conditions: pH 7.4. Here is the method: as §1
The mark [3] stands for this setting: MH broth pH 7.4, 16–20 h, 37 °C.
Where [4] appears, read: supplementary CSV, ranges of Table 1 given as one number.
[5] abbreviates: MDR strain, MH broth pH 7.4, 16–20 h, 37 °C.

Take `CC(C)C[C@H](NC(=O)[C@H](CC(C)C)NC(=O)[C@H](CC(C)C)NC(=O)[C@@H](CCCCN)NC(=O)[C@@H](CC(C)C)NC(=O)[C@@H](CC(C)C)NC(=O)[C@@H](CCCCN)NC(=O)[C@@H](CC(C)C)NC(=O)[C@H](CC(C)C)NC(=O)[C@H](CCCCN)NC(=O)[C@@H](N)CCCCN)C(N)=O` [HP29, KKLlkllkLLL]: the “EYPC vesicle leakage (%)” value in test [1] came out at 6%. The “MIC K. pneumoniae NCTC418” value against K. pneumoniae NCTC418 (setting [3]) and in the test on K. pneumoniae NCTC418 (setting [4]) was 64 µg/mL (≈ 48.4 µM) each time. In the test with S. aureus COL MRSA, the “MIC S. aureus COL MRSA” value came out at 32 µg/mL (≈ 24.2 µM). In addition, in the test with S. aureus COL MRSA, the “MIC S. aureus COL” value is 32 µg/mL (≈ 24.2 µM). For the same compound, the “MIC A. baumannii ATCC19606” value in the test with A. baumannii ATCC19606 (setting [3]) and with A. baumannii ATCC19606 (setting [4]) was 8 µg/mL (≈ 6.05 µM) throughout. The “MIC E. coli W3110” value against E. coli W3110 is 2 µg/mL (≈ 1.51 µM). For the same compound, the “MIC P. aeruginosa PAO1” value in the test with P. aeruginosa PAO1 (setting [3]) and in the test on P. aeruginosa PAO1 (setting [4]) was 4 µg/mL (≈ 3.03 µM) throughout.

`CC(C)C[C@H](NC(=O)[C@H](CC(C)C)NC(=O)[C@H](CC(C)C)NC(=O)[C@H](CCCCN)NC(=O)[C@H](CC(C)C)NC(=O)[C@H](CC(C)C)NC(=O)[C@H](CCCCN)NC(=O)[C@H](CC(C)C)NC(=O)[C@H](CC(C)C)NC(=O)[C@@H](CCCCN)NC(=O)[C@H](N)CCCCN)C(N)=O` [HP2]: the “MIC P. aeruginosa PA14 4.18” value in the test with PA14 4.18 (pmrB) (supplementary CSV) is 32 µg/mL (≈ 24.2 µM). Also, in the test with PA14 2P4 (pmrB) (supplementary CSV), the “MIC P. aeruginosaPA14 2P4” value was determined as 64 µg/mL (≈ 48.4 µM). For the same compound, in the test on Burkolderia cenocepacia (setting [5]), the “MIC Burkolderia cenocepacia” value is more than 64 µg/mL. The “MIC PA14” value against P. aeruginosa PA14 (setting [3]) is 2 µg/mL (≈ 1.51 µM). For the same compound, the “MIC P. aeruginosa PA14” value in the test with P. aeruginosa PA14 (supplementary CSV) was found to be 2 µg/mL (≈ 1.51 µM). The “MIC ZEM-1A” value against P. aeruginosa ZEM-1A (pH 7.4) worked out at 2 µg/mL (≈ 1.51 µM). For the same compound, the “MIC P. aeruginosa PA14 4.13” value with PA14 4.13 (phoQ) (supplementary CSV) turned out to be 4 µg/mL (≈ 3.03 µM). Moreover, the “MIC Enterobacter cloacae” value with Enterobacter cloacae (pH 7.4) worked out at 2 µg/mL (≈ 1.51 µM). Besides, in the test with P. aeruginosa ZEM9A (pH 7.4), the “MIC ZEM9A” value was determined as 4 µg/mL (≈ 3.03 µM). Moreover, the “MIC K. pneumoniae NCTC418” value in the test on K. pneumoniae NCTC418 (setting [3]) was 2 to 4 µg/mL; against K. pneumoniae NCTC418 (setting [4]), 3 µg/mL (≈ 2.27 µM). Also, the “MIC S. aureus COL MRSA” value with S. aureus COL MRSA came to 4 µg/mL (≈ 3.03 µM). Also, the “MIC S. aureus COL” value with S. aureus COL MRSA was found to be 4 µg/mL (≈ 3.03 µM). Further, the “MIC A. baumannii ATCC19606” value against A. baumannii ATCC19606 (setting [3]) and in the test with A. baumannii ATCC19606 (setting [4]) was 4 µg/mL (≈ 3.03 µM) throughout. For the same compound, the “MIC E. coli W3110” value with E. coli W3110 turned out to be 4 µg/mL (≈ 3.03 µM). Further, the “MIC P. aeruginosa PAO1” value in the test on P. aeruginosa PAO1 (setting [3]) and against P. aeruginosa PAO1 (setting [4]) was 4 µg/mL (≈ 3.03 µM) each time. Also, in [2] (pH 7.4), the “MIC Stenotrophomonas maltophilia” value was determined as 2 µg/mL (≈ 1.51 µM). Further, in the test on K. pneumoniae Oxa-48 (setting [5]), the “MIC K. pneumoniae Oxa-48” value stood at 2 µg/mL (≈ 1.51 µM). Moreover, the “MIC S. aureus Newman” value in the test on S. aureus Newman (setting [3]) is 2 µg/mL (≈ 1.51 µM). Further, the “MIC S. aureus Newmann” value with S. aureus Newman (supplementary CSV) was 2 µg/mL (≈ 1.51 µM). In the test with Staphylococcus epidermis, the “MIC Staphylococcus epidermis” value came out at 2 µg/mL (≈ 1.51 µM).

With `CC(C)CCCCC(=O)N[C@@H](CCN)C(=O)N[C@H](C(=O)N[C@@H](CCN)C(=O)N[C@H]1CCNC(=O)[C@H]([C@@H](C)O)NC(=O)[C@H](CCN)NC(=O)[C@H](CCN)NC(=O)[C@H](CC(C)C)NC(=O)[C@@H](Cc2ccccc2)NC(=O)[C@@H](CCN)NC1=O)[C@@H](C)O` [Pol B, polymyxin B, reference compound] ({Heptanoyl(6-Me)}-[Dab]T[Dab][Dab][dDab][dF]L[Dab][Dab]T; lactam 4-C), the MIC in the test with PA14 4.18 (pmrB) (Pseudomonas aeruginosa, PA14, pH 7.4, read-out: MIC PA14 4.18 (pmrB)) was 1 µg/mL (≈ 0.841 µM); in the test on PA14 2P4 (pmrB) (Pseudomonas aeruginosa, PA14, pH 7.4, read-out: MIC PA14 2P4 (pmrB)), 1 µg/mL (≈ 0.841 µM); in the test on Burkolderia cenocepacia (Burkholderia cenocepacia, pH 7.4, read-out: MIC Burkolderia cenocepacia), more than 16 µg/mL; with P. aeruginosa PA14 (Pseudomonas aeruginosa, PA14, pH 7.4, read-out: MIC PA14) it was less than 0.125 µg/mL; in the test with P. aeruginosa ZEM-1A (Pseudomonas aeruginosa, ZEM1A, pH 7.4, read-out: MIC ZEM-1A), less than 0.125 µg/mL; in the test on PA14 4.13 (phoQ) (Pseudomonas aeruginosa, PA14, pH 7.4, read-out: MIC PA14 4.13 (phoQ)), 0.25 µg/mL (≈ 0.21 µM). The MIC worked out at 1 µg/mL (≈ 0.841 µM) in the test on Enterobacter cloacae (Enterobacter cloacae, pH 7.4, read-out: MIC Enterobacter cloacae); 2 µg/mL (≈ 1.68 µM) against P. aeruginosa ZEM9A (Pseudomonas aeruginosa, ZEM9A, MDR strain, MH broth pH 7.4, 16–20 h, 37 °C); 0.5 µg/mL (≈ 0.42 µM) in test [2] (Stenotrophomonas maltophilia, MDR strain, MH broth pH 7.4, 16–20 h, 37 °C); 2 µg/mL (≈ 1.68 µM) in the test on K. pneumoniae Oxa-48 (Klebsiella pneumoniae, OXA48, pH 7.4, read-out: MIC K. pneumoniae Oxa-48).

In the case of `CC(C)C[C@H](NC(=O)[C@H](CC(C)C)NC(=O)[C@@H](CC(C)C)NC(=O)[C@H](CCCCN)NC(=O)[C@@H](CC(C)C)NC(=O)[C@H](CC(C)C)NC(=O)[C@@H](CCCCN)NC(=O)[C@H](CC(C)C)NC(=O)[C@@H](CC(C)C)NC(=O)[C@H](CCCCN)NC(=O)[C@@H](N)CCCCN)C(N)=O` [HP15, KKlLkLlKlLL], the “EYPC vesicle leakage (%)” value in test [1] is recorded as 3%. Besides, the “MIC K. pneumoniae NCTC418” value in the test with K. pneumoniae NCTC418 (setting [3]) is more than 64 µg/mL. Also, the “MIC S. aureus COL MRSA” value against S. aureus COL MRSA is more than 64 µg/mL. Besides, the “MIC A. baumannii ATCC19606” value is 32 to 64 µg/mL with A. baumannii ATCC19606 (setting [3]) and 48 µg/mL (≈ 36.3 µM) against A. baumannii ATCC19606 (setting [4]). In addition, the “MIC E. coli W3110” value in the test with E. coli W3110 came out at 8 µg/mL (≈ 6.05 µM). The “MIC P. aeruginosa PAO1” value against P. aeruginosa PAO1 (setting [3]) and against P. aeruginosa PAO1 (setting [4]) was 16 µg/mL (≈ 12.1 µM) throughout.
